In the supplement of paper PMC10307832:

How the values were obtained:
Experiment in all cases: relative viability (nuclei count vs DMSO), 5 days (fraction); higher = more cells survive
NCI-H1944 = test system: NCI-H1944
Procedure, shortened: (§1)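 Relative viability is defined as nuclei in treated wells over nuclei in vehicle wells. Duplicate plates were run and medians reported. Lung cancer cell lines in 1536-well plates were dosed by pin tool one day after seeding, with one drug or with a fixed anchor-drug dose plus five library-drug doses (not always all listed) in √10 steps, and nuclei were counted after 5 days.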

NCI-H3122 = test system: NCI-H3122
Procedure, shortened: as §1

NCI-H460 = test system: NCI-H460
Procedure, shortened: as §1

NCI-H1915 = test system: NCI-H1915
Procedure, shortened: as §1

HCC-78 = test system: HCC-78
Procedure, shortened: as §1

COR-L23 = test system: COR-L23
Procedure, shortened: as §1

LK-2 = test system: LK-2
Procedure, shortened: as §1

PC-14 = test system: PC-14
Procedure, shortened: as §1

NCI-H727 = test system: NCI-H727
Procedure, shortened: as §1

HCC-44 = test system: HCC-44
Procedure, shortened: as §1

NCI-H1975 = test system: NCI-H1975
Procedure, shortened: as §1

A-427 = test system: A-427
Procedure, shortened: as §1

HARA = test system: HARA
Procedure, shortened: as §1

NCI-H2023 = test system: NCI-H2023
Procedure, shortened: as §1

HCC-366 = test system: HCC-366
Procedure, shortened: as §1

EBC-1 = test system: EBC-1
Procedure, shortened: as §1

HCC-15 = test system: HCC-15
Procedure, shortened: as §1

COR-L 105 = test system: COR-L 105
Procedure, shortened: as §1

NCI-H1563 = test system: NCI-H1563
Procedure, shortened: as §1

LCLC-97TM1 = test system: LCLC-97TM1
Procedure, shortened: as §1

NCI-H1666 = test system: NCI-H1666
Procedure, shortened: as §1

NCI-H1437 = test system: NCI-H1437
Procedure, shortened: as §1

Which relative viability (NCI-H1944; first compound 0.001 µM) does the source give for `Cc1cn(-c2cc(NC(=O)c3ccc(C)c(Nc4nccc(-c5cccnc5)n4)c3)cc(C(F)(F)F)c2)cn1` [Nilotinib] + CS(=O)(=O)CCNCc1ccc(-c2ccc3ncnc(Nc4ccc(OCc5cccc(F)c5)c(Cl)c4)c3c2)o1 [Lapatinib] (partner 2 µM) here?
Its relative viability is 0.894.

And the relative viability (NCI-H1944; first compound 0.003162 µM)?
The relative viability was 0.996.

What about the relative viability (NCI-H1944; first compound 0.01 µM) of the same molecule?
The relative viability was 0.742.

And the relative viability (NCI-H1944; first compound 0.03162 µM)?
Its relative viability is 1.03.

And the relative viability (NCI-H1944; first compound 0.1 µM)?
The relative viability was 0.389.

What about the relative viability (NCI-H3122; first compound 0.001 µM) of the same molecule?
The relative viability was 0.988.

And the relative viability (NCI-H3122; first compound 0.003162 µM)?
The relative viability was 1.07.

What about the relative viability (NCI-H3122; first compound 0.01 µM) of the same molecule?
The relative viability was 0.991.

What about the relative viability (NCI-H3122; first compound 0.03162 µM) of the same molecule?
The relative viability was 1.01.

What about the relative viability (NCI-H3122; first compound 0.1 µM) of the same molecule?
Its relative viability is 0.98.

What about the relative viability (NCI-H460; first compound 0.001 µM) of the same molecule?
Its relative viability is 0.521.

What about the relative viability (NCI-H460; first compound 0.03162 µM) of the same molecule?
The relative viability was 0.378.

And the relative viability (NCI-H460; first compound 0.1 µM)?
Its relative viability is 0.0571.

What about the relative viability (NCI-H1915; first compound 0.001 µM) of the same molecule?
The relative viability was 0.986.

And the relative viability (NCI-H1915; first compound 0.003162 µM)?
The relative viability was 1.13.

What about the relative viability (NCI-H1915; first compound 0.01 µM) of the same molecule?
Its relative viability is 1.22.

And the relative viability (NCI-H1915; first compound 0.03162 µM)?
The relative viability was 0.98.

What about the relative viability (NCI-H1915; first compound 0.1 µM) of the same molecule?
Its relative viability is 0.517.

And the relative viability (HCC-78; first compound 0.001 µM)?
The relative viability was 0.889.

And the relative viability (HCC-78; first compound 0.003162 µM)?
Its relative viability is 0.718.

What about the relative viability (HCC-78; first compound 0.01 µM) of the same molecule?
Its relative viability is 0.779.

What about the relative viability (HCC-78; first compound 0.03162 µM) of the same molecule?
Its relative viability is 0.491.

What about the relative viability (HCC-78; first compound 0.1 µM) of the same molecule?
Its relative viability is 0.571.

What about the relative viability (COR-L23; first compound 0.001 µM) of the same molecule?
The relative viability was 0.834.

And the relative viability (COR-L23; first compound 0.003162 µM)?
The relative viability was 1.53.

And the relative viability (COR-L23; first compound 0.01 µM)?
Its relative viability is 1.7.

What about the relative viability (COR-L23; first compound 0.03162 µM) of the same molecule?
Its relative viability is 0.822.

What about the relative viability (COR-L23; first compound 0.1 µM) of the same molecule?
Its relative viability is 0.825.

And the relative viability (LK-2; first compound 0.001 µM)?
The relative viability was 0.854.

What about the relative viability (LK-2; first compound 0.003162 µM) of the same molecule?
Its relative viability is 0.754.

What about the relative viability (LK-2; first compound 0.01 µM) of the same molecule?
Its relative viability is 1.05.

What about the relative viability (LK-2; first compound 0.03162 µM) of the same molecule?
The relative viability was 0.875.

What about the relative viability (LK-2; first compound 0.1 µM) of the same molecule?
The relative viability was 0.822.

What about the relative viability (PC-14; first compound 0.001 µM) of the same molecule?
The relative viability was 0.328.

What about the relative viability (PC-14; first compound 0.003162 µM) of the same molecule?
The relative viability was 0.422.

What about the relative viability (PC-14; first compound 0.01 µM) of the same molecule?
Its relative viability is 0.367.

And the relative viability (PC-14; first compound 0.03162 µM)?
The relative viability was 0.318.

And the relative viability (PC-14; first compound 0.1 µM)?
Its relative viability is 0.277.

What about the relative viability (NCI-H727; first compound 0.001 µM) of the same molecule?
The relative viability was 0.858.

What about the relative viability (NCI-H727; first compound 0.01 µM) of the same molecule?
The relative viability was 0.985.

And the relative viability (NCI-H727; first compound 0.03162 µM)?
Its relative viability is 0.591.

What about the relative viability (NCI-H727; first compound 0.1 µM) of the same molecule?
Its relative viability is 0.368.

What about the relative viability (HCC-44; first compound 0.001 µM) of the same molecule?
The relative viability was 0.994.

And the relative viability (HCC-44; first compound 0.003162 µM)?
Its relative viability is 1.09.

What about the relative viability (HCC-44; first compound 0.01 µM) of the same molecule?
Its relative viability is 0.822.

What about the relative viability (HCC-44; first compound 0.03162 µM) of the same molecule?
The relative viability was 0.966.

And the relative viability (HCC-44; first compound 0.1 µM)?
The relative viability was 0.869.

What about the relative viability (NCI-H1975; first compound 0.001 µM) of the same molecule?
The relative viability was 0.859.

And the relative viability (NCI-H1975; first compound 0.003162 µM)?
The relative viability was 1.18.

What about the relative viability (NCI-H1975; first compound 0.01 µM) of the same molecule?
The relative viability was 0.894.

What about the relative viability (NCI-H1975; first compound 0.03162 µM) of the same molecule?
The relative viability was 0.658.

And the relative viability (NCI-H1975; first compound 0.1 µM)?
The relative viability was 0.433.

And the relative viability (A-427; first compound 0.001 µM)?
Its relative viability is 1.05.

What about the relative viability (A-427; first compound 0.01 µM) of the same molecule?
The relative viability was 1.13.

And the relative viability (A-427; first compound 0.03162 µM)?
The relative viability was 1.08.

What about the relative viability (A-427; first compound 0.1 µM) of the same molecule?
Its relative viability is 0.211.

What about the relative viability (HARA; first compound 0.001 µM) of the same molecule?
Its relative viability is 0.685.

What about the relative viability (HARA; first compound 0.003162 µM) of the same molecule?
Its relative viability is 0.777.

What about the relative viability (HARA; first compound 0.01 µM) of the same molecule?
Its relative viability is 0.686.

What about the relative viability (HARA; first compound 0.03162 µM) of the same molecule?
Its relative viability is 0.8.

And the relative viability (HARA; first compound 0.1 µM)?
The relative viability was 0.454.

And the relative viability (NCI-H2023; first compound 0.001 µM)?
Its relative viability is 0.702.

What about the relative viability (NCI-H2023; first compound 0.003162 µM) of the same molecule?
Its relative viability is 0.611.

What about the relative viability (NCI-H2023; first compound 0.01 µM) of the same molecule?
Its relative viability is 0.739.

What about the relative viability (NCI-H2023; first compound 0.03162 µM) of the same molecule?
The relative viability was 0.775.

What about the relative viability (NCI-H2023; first compound 0.1 µM) of the same molecule?
The relative viability was 0.15.

What about the relative viability (HCC-366; first compound 0.001 µM) of the same molecule?
Its relative viability is 0.907.

What about the relative viability (HCC-366; first compound 0.003162 µM) of the same molecule?
Its relative viability is 1.38.

And the relative viability (HCC-366; first compound 0.01 µM)?
The relative viability was 1.29.

And the relative viability (HCC-366; first compound 0.03162 µM)?
Its relative viability is 0.984.

And the relative viability (HCC-366; first compound 0.1 µM)?
Its relative viability is 0.191.

What about the relative viability (EBC-1; first compound 0.001 µM) of the same molecule?
The relative viability was 0.208.

And the relative viability (EBC-1; first compound 0.003162 µM)?
Its relative viability is 0.187.

What about the relative viability (EBC-1; first compound 0.01 µM) of the same molecule?
Its relative viability is 0.179.

What about the relative viability (EBC-1; first compound 0.03162 µM) of the same molecule?
The relative viability was 0.186.

And the relative viability (EBC-1; first compound 0.1 µM)?
The relative viability was 0.162.

And the relative viability (HCC-15; first compound 0.001 µM)?
Its relative viability is 0.835.

And the relative viability (HCC-15; first compound 0.003162 µM)?
Its relative viability is 1.07.

And the relative viability (HCC-15; first compound 0.01 µM)?
Its relative viability is 1.05.

And the relative viability (HCC-15; first compound 0.03162 µM)?
The relative viability was 0.663.

And the relative viability (HCC-15; first compound 0.1 µM)?
Its relative viability is 0.443.

What about the relative viability (COR-L 105; first compound 0.001 µM) of the same molecule?
Its relative viability is 0.418.

What about the relative viability (COR-L 105; first compound 0.01 µM) of the same molecule?
Its relative viability is 0.375.

What about the relative viability (COR-L 105; first compound 0.03162 µM) of the same molecule?
Its relative viability is 0.352.

What about the relative viability (COR-L 105; first compound 0.1 µM) of the same molecule?
Its relative viability is 0.286.

What about the relative viability (NCI-H1563; first compound 0.001 µM) of the same molecule?
Its relative viability is 0.961.

And the relative viability (NCI-H1563; first compound 0.003162 µM)?
The relative viability was 0.916.

What about the relative viability (NCI-H1563; first compound 0.01 µM) of the same molecule?
Its relative viability is 0.874.

And the relative viability (NCI-H1563; first compound 0.03162 µM)?
Its relative viability is 0.873.

And the relative viability (NCI-H1563; first compound 0.1 µM)?
Its relative viability is 0.596.

And the relative viability (LCLC-97TM1; first compound 0.001 µM)?
The relative viability was 0.777.

And the relative viability (LCLC-97TM1; first compound 0.003162 µM)?
The relative viability was 1.05.

What about the relative viability (LCLC-97TM1; first compound 0.01 µM) of the same molecule?
The relative viability was 1.12.

What about the relative viability (LCLC-97TM1; first compound 0.03162 µM) of the same molecule?
Its relative viability is 1.16.

And the relative viability (LCLC-97TM1; first compound 0.1 µM)?
Its relative viability is 0.268.

What about the relative viability (NCI-H1666; first compound 0.001 µM) of the same molecule?
The relative viability was 0.772.

What about the relative viability (NCI-H1666; first compound 0.003162 µM) of the same molecule?
The relative viability was 0.901.

And the relative viability (NCI-H1666; first compound 0.01 µM)?
The relative viability was 0.461.

And the relative viability (NCI-H1666; first compound 0.03162 µM)?
Its relative viability is 0.655.

And the relative viability (NCI-H1666; first compound 0.1 µM)?
Its relative viability is 0.641.

What about the relative viability (NCI-H1437; first compound 0.001 µM) of the same molecule?
Its relative viability is 0.687.

And the relative viability (NCI-H1437; first compound 0.003162 µM)?
The relative viability was 0.973.

And the relative viability (NCI-H1437; first compound 0.01 µM)?
Its relative viability is 0.858.

What about the relative viability (NCI-H1437; first compound 0.03162 µM) of the same molecule?
The relative viability was 0.614.

And the relative viability (NCI-H1437; first compound 0.1 µM)?
The relative viability was 0.203.
